In patent US20090233899A1, “Crystalline Modification of Cefuroximaxetil” (Gruenenthal GmbH, priority 2006, published 2009):

Assay: Binary mixtures of the ε-modification with the α-, β- or γ-modification in methanol and acetone (relative thermodynamic stability)
Type: physicochemical

CO/N=C(\C(=O)N[C@@H]1C(=O)N2C(C(=O)OC(C)OC(C)=O)=C(COC(N)=O)CS[C@H]12)c1ccco1 (stereo partly shown) [ε-modification, cefuroximaxetil]
thermodynamic stability relative to the other crystalline modifications: more stable than the α-, β- or γ-modification
